Results as given in patent publication US10253029B2, “Dual-warhead covalent inhibitors of FGFR-4” (Newave Pharmaceutical Inc., priority 2015, dated 2019).

How the values were obtained:
[1] = target: T1, wild type FGFR-4 (Homo sapiens, UniProt P22455); assay: FGFR-4 wild type assay at Km (Caliper mobility shift); type: biochemical; conditions: wild type FGFR-4, 400 uM ATP, 25 C, 90 minutes
T1 construct: purchased Carna Biosciences, Inc
Method: (§1) In order to assess the activity of chemical compounds against the relevant kinase of interest, the Caliper LifeSciences electrophoretic mobility shift technology platform is utilized. Fluorescently labeled substrate peptide is incubated in the presence dosed levels of compounds, a set concentration of kinase and of ATP, so that a reflective proportion of the peptide is phosphorylated. At the end of the reaction, the mix of phosphorylated (product) and non-phosphorylated (substrate) peptides are passed through the microfluidic system of the Caliper LabChip® EZ Reader II, under an applied potential difference. The presence of the phosphate group on the product peptide provides a difference in mass and charge between the product peptide and the substrate peptide, resulting in a separation of the substrate and product pools in the sample. As the pools pass the LEDS within the instrument, these pools are detected and resolved as separate peaks. The ratio between these peaks therefore reflects the activity of the chemical matter at that concentration in that well, under those conditions.
FGFR-4 wild type assay at Km: In each well of a 384-well plate, 0.5 ng/ul of wild type FGFR-4 (Carna Biosciences, Inc.) was incubated in a total of 12.5 ul of buffer (100 mM HEPES pH 7.5, 0.015% Brij 35, 10 mM MgCl2, ImM DTT) with 1 uM CSKtide (5-FAM-KKKKEEIYFFFG-NH2) and 400 uM ATP at 25 C for 90 minutes in the presence or absence of a dosed concentration series of compound (1% DMSO final concentration). The reaction was stopped by the addition of 70 ul of Stop buffer (100 mM HEPES pH 7.5, 0.015% Brij 35, 35 mM EDTA and 0.2% of Coating Reagent 3 (Caliper Lifesciences)). The plate was then read on a Caliper LabChip® EZ Reader II (protocol settings: −1.9 psi, upstream voltage −700, downstream voltage −3000, post sample sip 35 s).
Such assays, carried out with a range of doses of test compounds, allow the determination of an approximate IC50 value. […] The following table lists the IC50 values of certain compounds of the invention.

[2] = test system: patient-derived liver cancer cell line LIXC012; assay: Antiproliferative activity, ATPlite Luminescence Assay; type: cell-based; conditions: FGF19-overexpressing LIXC012 cells, about 72 hours, 5% FBS; read-out: LIXC012 IC50 (cellular antiproliferative)
Method: The antiproliferative activity of compounds are assessed in the patient-derived liver cancer cell line LIXC012 (Shanghai ChemPartner Co., LTD) by PerkinElmer ATPlite™ Luminescence Assay System. LIXC012 cell line has a FGFR-4 aberrant signaling pathway (FGF19-overexpressing). Briefly, the various test cancer cell lines are plated at a density of about 1×10^4 cells per well in Costar 96-well plates, and are incubated with different concentrations of compounds for about 72 hours in medium supplemented with 5% FBS. One lyophilized substrate solution vial is then reconstituted by adding 5 mL of substrate buffer solution, and is agitated gently until the solution is homogeneous. About 50 μL of mammalian cell lysis solution is added to 100 μL of cell suspension per well of a microplate, and the plate is shaken for about five minutes in an orbital shaker at ˜700 rpm. This procedure is used to lyse the cells and to stabilize the ATP. Next, 50 μL substrate solution is added to the wells and microplate is shaken for five minutes in an orbital shaker at ˜700 rpm. Finally, the luminescence is measured by a PerkinElmer TopCount® Microplate Scintillation Counter. Such assays, carried out with a range of doses of test compounds, allow the determination of the cellular anti-antiproliferative IC50 of the compounds of the present invention. The following table lists the IC50 values of certain compounds of the invention in the FGF19-overexpressing Patient-Derived liver cancer cell line LIXC012.

[3] = target: T2, wild type FGFR-2 (Homo sapiens, UniProt P21802); assay: FGFR-2 wild type assay at Km (Caliper mobility shift); type: biochemical; conditions: wild type FGFR-2, 400 uM ATP, 25 C, 90 minutes
T2 construct: purchased Carna Biosciences, Inc
T2 sequence (P21802 22-821): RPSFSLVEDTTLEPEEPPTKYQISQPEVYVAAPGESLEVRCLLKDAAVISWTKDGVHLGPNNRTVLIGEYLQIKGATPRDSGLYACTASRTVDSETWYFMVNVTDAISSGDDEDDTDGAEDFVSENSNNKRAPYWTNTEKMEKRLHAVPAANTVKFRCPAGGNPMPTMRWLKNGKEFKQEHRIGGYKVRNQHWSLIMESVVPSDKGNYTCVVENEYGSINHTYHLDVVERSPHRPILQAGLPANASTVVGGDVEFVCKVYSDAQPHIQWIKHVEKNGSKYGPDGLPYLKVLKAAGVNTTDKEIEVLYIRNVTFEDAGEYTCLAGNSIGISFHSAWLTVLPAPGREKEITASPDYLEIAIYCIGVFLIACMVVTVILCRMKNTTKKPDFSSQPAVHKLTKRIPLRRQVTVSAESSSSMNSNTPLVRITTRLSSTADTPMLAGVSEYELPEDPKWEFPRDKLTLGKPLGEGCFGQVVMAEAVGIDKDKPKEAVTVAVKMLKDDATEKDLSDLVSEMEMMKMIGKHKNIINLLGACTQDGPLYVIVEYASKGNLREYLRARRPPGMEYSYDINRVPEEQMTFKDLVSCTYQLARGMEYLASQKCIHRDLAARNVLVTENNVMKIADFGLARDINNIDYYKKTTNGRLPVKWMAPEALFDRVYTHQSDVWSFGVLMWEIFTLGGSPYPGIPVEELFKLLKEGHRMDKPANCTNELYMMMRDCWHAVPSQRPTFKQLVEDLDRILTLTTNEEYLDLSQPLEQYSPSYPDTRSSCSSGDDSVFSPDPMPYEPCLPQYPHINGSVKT
Method: as §1, with “conditions. […]” for “conditions.”

[4] = target: T3, wild type FGFR-1 (Homo sapiens, UniProt P11362); assay: FGFR-1 wild type assay at Km (Caliper mobility shift); type: biochemical; conditions: wild type FGFR-1, 400 uM ATP, 25 C, 90 minutes
T3 construct: purchased Carna Biosciences, Inc
T3 sequence (P11362 22-822): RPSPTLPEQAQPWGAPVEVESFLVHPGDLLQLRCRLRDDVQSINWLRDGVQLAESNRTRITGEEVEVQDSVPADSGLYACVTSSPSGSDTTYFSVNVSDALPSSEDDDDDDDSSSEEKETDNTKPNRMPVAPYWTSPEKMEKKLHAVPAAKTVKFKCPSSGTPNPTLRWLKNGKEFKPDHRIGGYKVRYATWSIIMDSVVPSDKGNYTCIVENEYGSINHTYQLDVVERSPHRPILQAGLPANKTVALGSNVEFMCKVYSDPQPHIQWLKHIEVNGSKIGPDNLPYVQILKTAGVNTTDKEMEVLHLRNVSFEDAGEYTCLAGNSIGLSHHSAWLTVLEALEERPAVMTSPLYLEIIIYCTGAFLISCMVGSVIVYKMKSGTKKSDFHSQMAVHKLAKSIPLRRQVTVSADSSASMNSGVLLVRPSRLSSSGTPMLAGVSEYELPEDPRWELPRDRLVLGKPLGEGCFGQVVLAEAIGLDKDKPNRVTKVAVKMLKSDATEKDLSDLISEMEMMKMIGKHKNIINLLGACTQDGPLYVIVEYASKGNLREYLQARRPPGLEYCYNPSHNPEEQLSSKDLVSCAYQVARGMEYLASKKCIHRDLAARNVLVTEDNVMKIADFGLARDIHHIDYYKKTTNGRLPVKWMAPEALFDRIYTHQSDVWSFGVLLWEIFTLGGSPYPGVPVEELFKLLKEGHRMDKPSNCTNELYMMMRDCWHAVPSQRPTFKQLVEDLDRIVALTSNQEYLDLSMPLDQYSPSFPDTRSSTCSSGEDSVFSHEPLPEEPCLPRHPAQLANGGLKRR
Method: as §1, with “conditions. […]” for “conditions.”

[5] = target: T4, wild type FGFR-3 (Homo sapiens, UniProt P22607); assay: FGFR-3 wild type assay at Km (Caliper mobility shift); type: biochemical; conditions: wild type FGFR-3, 400 uM ATP, 25 C, 90 minutes
T4 construct: purchased Carna Biosciences, Inc
T4 sequence (P22607 23-806): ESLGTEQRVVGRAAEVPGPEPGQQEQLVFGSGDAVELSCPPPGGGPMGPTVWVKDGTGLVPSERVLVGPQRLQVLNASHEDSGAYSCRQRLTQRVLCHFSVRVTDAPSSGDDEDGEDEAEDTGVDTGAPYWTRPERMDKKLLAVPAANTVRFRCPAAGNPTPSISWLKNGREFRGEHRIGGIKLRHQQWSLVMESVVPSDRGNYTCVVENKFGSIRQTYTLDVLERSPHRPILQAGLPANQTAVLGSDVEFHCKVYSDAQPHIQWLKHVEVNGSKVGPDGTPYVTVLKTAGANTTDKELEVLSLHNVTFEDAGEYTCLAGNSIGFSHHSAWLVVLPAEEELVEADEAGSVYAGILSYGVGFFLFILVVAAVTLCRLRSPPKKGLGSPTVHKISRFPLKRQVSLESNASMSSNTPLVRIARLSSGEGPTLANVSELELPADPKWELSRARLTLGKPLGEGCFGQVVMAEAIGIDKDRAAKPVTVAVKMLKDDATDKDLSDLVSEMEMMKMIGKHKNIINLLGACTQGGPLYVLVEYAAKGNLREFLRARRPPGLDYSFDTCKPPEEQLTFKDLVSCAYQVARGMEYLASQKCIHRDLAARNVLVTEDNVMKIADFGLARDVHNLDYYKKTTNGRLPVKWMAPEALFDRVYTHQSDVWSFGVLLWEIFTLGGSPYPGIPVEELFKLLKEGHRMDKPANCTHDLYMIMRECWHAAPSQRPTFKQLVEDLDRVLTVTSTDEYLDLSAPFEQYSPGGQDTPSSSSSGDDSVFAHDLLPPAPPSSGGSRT
Method: as §1, with “conditions. […]” for “conditions.”

T1 sequence (P22455 22-802): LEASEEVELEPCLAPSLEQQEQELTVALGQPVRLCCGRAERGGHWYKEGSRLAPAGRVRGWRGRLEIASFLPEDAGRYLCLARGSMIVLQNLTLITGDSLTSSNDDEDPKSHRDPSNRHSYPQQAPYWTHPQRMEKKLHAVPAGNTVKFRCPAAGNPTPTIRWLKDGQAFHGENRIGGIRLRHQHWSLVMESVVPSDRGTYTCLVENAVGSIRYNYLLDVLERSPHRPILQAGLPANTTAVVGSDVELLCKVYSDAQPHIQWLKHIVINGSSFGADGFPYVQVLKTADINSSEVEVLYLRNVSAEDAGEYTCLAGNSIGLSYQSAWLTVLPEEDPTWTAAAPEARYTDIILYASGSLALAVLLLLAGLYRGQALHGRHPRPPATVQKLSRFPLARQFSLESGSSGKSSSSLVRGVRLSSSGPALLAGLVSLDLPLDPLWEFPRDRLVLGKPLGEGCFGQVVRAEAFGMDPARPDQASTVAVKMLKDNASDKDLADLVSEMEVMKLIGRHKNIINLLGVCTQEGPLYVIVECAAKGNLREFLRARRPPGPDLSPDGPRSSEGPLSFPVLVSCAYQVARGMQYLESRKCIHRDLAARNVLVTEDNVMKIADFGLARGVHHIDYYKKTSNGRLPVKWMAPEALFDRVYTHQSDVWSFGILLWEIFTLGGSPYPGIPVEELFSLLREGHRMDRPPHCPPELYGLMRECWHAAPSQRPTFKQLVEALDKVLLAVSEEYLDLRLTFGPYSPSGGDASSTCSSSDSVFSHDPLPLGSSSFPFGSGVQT

| Structure (SMILES) | IC50 [1] [nM] | IC50 [2] [nM] | IC50 [3] [nM] | IC50 [4] [nM] | IC50 [5] [nM] |
| --- | --- | --- | --- | --- | --- |
| C=CC(=O)Nc1cccc(C)c1Nc1ncc2cc(-c3c(Cl)c(OC)cc(OC)c3Cl)c(=O)n(CCN3CCN(C(=O)C=C)CC3)c2n1 [CY-15-7] | < 50 | – | – | – | – |
| C=CC(=O)Nc1cccc(C)c1Nc1ncc2cc(-c3c(Cl)c(OC)cc(OC)c3Cl)ccc2n1 [BLU9931, reference compound] | – | 280 | – | – | – |
| C=CC(=O)Nc1cccc(C)c1Nc1ncc2cc(-c3c(Cl)c(OC)cc(OC)c3Cl)c(=O)n(CC3CCN(C(=O)/C=C/CN(C)C)C3)c2n1 (stereo not shown) [CY-15-5] | < 50 | – | – | – | – |
| C=CC(=O)Nc1ccc(CCn2c(=O)c(-c3c(Cl)c(OC)cc(OC)c3Cl)cc3cnc(Nc4c(C)cccc4NC(=O)C=C)nc32)cc1 [CY-15-3, N-(4-(2-(2-(2-acrylamido-6-methylphenylamino)-6-(2,6-dichloro-3,5-dimethoxyphenyl)-7-oxopyrido[2,3-d]pyrimidin-8(7H)-yl)ethyl)phenyl)acrylamide] | < 50 | 660 | > 1000 | > 1000 | > 1000 |
| C=CC(=O)Nc1ccc(Cn2c(=O)c(-c3c(Cl)c(OC)cc(OC)c3Cl)cc3cnc(Nc4c(C)cccc4NC(=O)C=C)nc32)cc1 [CY-15-2, N-(4-((2-((2-acrylamido-6-methylphenyl)amino)-6-(2,6-dichloro-3,5-dimethoxyphenyl)-7-oxopyrido[2,3-d]pyrimidin-8(7H)-yl)methyl)phenyl)acrylamide] | < 50 | 490 | > 1000 | > 1000 | > 1000 |
| C=CC(=O)Nc1cccc(C)c1Nc1ncc2cc(-c3c(Cl)c(OC)cc(OC)c3Cl)c(=O)n(CCCN3CCN(C(=O)C=C)CC3)c2n1 [CY-15-8] | < 50 | – | – | – | – |
| C=CC(=O)Nc1cccc(C)c1Nc1ncc2cc(-c3c(Cl)c(OC)cc(OC)c3Cl)c(=O)n(CC3CCN(C(=O)/C=C/CN(C)C)CC3)c2n1 [CY-15-6] | < 50 | – | – | – | – |
| C=CC(=O)Nc1cccc(C)c1Nc1ncc2cc(-c3c(Cl)c(OC)cc(OC)c3Cl)c(=O)n(CC3CN(C(=O)/C=C/CN(C)C)C3)c2n1 [CY-15-4] | < 50 | – | – | – | – |
